Assays:
[1] = target: Recombinant human soluble BACE1 catalytic domain (Homo sapiens (Human), UniProt P56817); assay: BACE1 HTRF FRET Assay; type: biochemical; conditions: Ki calculated from IC50 using the Cheng-Prusoff equation; QSY7-APPswe-Eu substrate, pH 5.0; read-out: BACE-1 Ki
Source text: Reagents: Na^+-Acetate pH 5.0; 1% Brij-35; Glycerol; Dimethyl Sulfoxide (DMSO); Recombinant human soluble BACE1 catalytic domain (>95% pure); APP Swedish mutant peptide substrate (QSY7-APP^swe-Eu): QSY7-EISEVNLDAEFC-Europium-amide.
A homogeneous time-resolved FRET assay can be used to determine IC50 values for inhibitors of the soluble human BACE1 catalytic domain. This assay monitors the increase of 620 nm fluorescence that resulted from BACE1 cleavage of an APPswedish APP^swe mutant peptide FRET substrate (QSY7-EISEVNLDAEFC-Europium-amide). This substrate contains an N-terminal QSY7 moiety that serves as a quencher of the C-terminal Europium fluorophore (620 nm Em). In the absence of enzyme activity, 620 nm fluorescence is low in the assay and increased linearly over 3 hours in the presence of uninhibited BACE1 enzyme. Inhibition of BACE1 cleavage of the QSY7-APP^swe-Eu substrate by inhibitors is manifested as a suppression of 620 nm fluorescence.
Varying concentrations of inhibitors at 3× the final desired concentration in a volume of 10 ul are preincubated with purified human BACE1 catalytic domain (3 nM in 10 μl) for 30 minutes at 30° C. in reaction buffer containing 20 mM Na-Acetate pH 5.0, 10% glycerol, 0.1% Brij-35 and 7.5% DSMO. Reactions are initiated by addition of 10 μl of 600 nM QSY7-APP^swe-Eu substrate (200 nM final) to give a final reaction volume of 30 μl in a 384 well Nunc HTRF plate. The reactions are incubated at 30° C. for 1.5 hours. The 620 nm fluorescence is then read on a Rubystar HTRF plate reader (BMG Labtechnologies) using a 50 millisecond delay followed by a 400 millisecond acquisition time window. Inhibitor IC50 values are derived from non-linear regression analysis of concentration response curves. Ki values are then calculated from IC50 values using the Cheng-Prusoff equation using a previously determined […] of 8 μM for the QSY7-APP^swe-Eu substrate at BACE1.

[2] = target: purified human autoBACE-2 (Homo sapiens (Human), UniProt Q9Y5Z0); assay: BACE-2 Assay (BACE-HTRF assay); type: biochemical; conditions: Ki calculated from IC50 using the Cheng-Prusoff equation; QSY7-EISEVNLDAEFC-Eu-amide substrate, pH 5.0
Procedure: Inhibitor IC50s at purified human autoBACE-2 are determined in a time-resolved endpoint proteolysis assay that measures hydrolysis of the QSY7-[…]-Eu-amide FRET peptide substrate (BACE-HTRF assay). […] DMSO is present at 5% final concentration in the assay. Following laser excitation of sample wells at 320 nm, the fluorescence signal at 620 nm is collected for 400 ms following a 50 μs delay on a RUBYstar HTRF plate reader (BMG Labtechnologies). Raw RFU data is normalized to maximum (1.0 nM BACE/DMSO) and minimum (no enzyme/DMSO) RFU values. […] The Ki values are calculated from the IC50 using the Cheng-Prusoff equation.

purified human autoBACE-2, sequence (Q9Y5Z0 63-473 limits assumed): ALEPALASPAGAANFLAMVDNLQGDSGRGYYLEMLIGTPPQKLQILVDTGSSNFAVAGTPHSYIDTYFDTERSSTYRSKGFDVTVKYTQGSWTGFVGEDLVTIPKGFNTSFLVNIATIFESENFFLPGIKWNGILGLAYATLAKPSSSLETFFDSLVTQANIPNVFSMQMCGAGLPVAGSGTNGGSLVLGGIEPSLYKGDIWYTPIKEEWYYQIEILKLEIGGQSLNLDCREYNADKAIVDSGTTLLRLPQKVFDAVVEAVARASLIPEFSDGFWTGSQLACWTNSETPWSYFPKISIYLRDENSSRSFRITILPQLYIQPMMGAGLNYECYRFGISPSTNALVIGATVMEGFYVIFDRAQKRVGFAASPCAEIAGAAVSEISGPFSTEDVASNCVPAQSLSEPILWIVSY
Recombinant human soluble BACE1 catalytic domain, sequence (P56817 75-416): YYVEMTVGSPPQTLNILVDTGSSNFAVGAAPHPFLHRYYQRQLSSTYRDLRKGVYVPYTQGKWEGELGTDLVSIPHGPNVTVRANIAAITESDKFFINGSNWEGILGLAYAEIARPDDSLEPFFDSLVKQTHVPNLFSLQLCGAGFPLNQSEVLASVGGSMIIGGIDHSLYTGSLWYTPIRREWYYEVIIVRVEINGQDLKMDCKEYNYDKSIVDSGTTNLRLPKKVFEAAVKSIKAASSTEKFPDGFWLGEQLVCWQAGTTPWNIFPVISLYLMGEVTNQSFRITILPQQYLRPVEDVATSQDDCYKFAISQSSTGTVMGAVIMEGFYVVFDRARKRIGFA

SMILES | Ki [1] [nM] | Ki [2] [nM]
C[C@H]1C[C@H]2C(=O)N(C)C(=N)N[C@@]2(c2cc(Oc3ncc(F)cc3F)ccc2F)CO1 [Example 36, (4aR,6S,8aS)-8a-(5-((3,5-difluoropyridin-2-yl)oxy)-2-fluorophenyl)-2-imino-3,6-dimethylhexahydro-1H-pyrano[3,4-d]pyrimidin-4(4aH)-one] | 8.9 | 24
CN1C(=N)N[C@@]2(c3cc(Oc4cccc(C#N)c4)ccc3F)CO[C@@H](C3CC3)C[C@H]2C1=O [Example 25, 3-(3-((4aR,6R,8aS)-6-cyclopropyl-2-imino-3-methyl-4-oxohexahydro-1H-pyrano[3,4-d]pyrimidin-8a(8H)-yl)-4-fluorophenoxy)benzonitrile] | 27 | 46
CN1C(=N)N[C@@]2(c3cc(OCC45CC(C#N)(C4)C5)ccc3F)CO[C@@H](C3CC3)C[C@H]2C1=O [Example 37, 3-((3-((4aR,6R,8aS)-6-cyclopropyl-2-imino-3-methyl-4-oxohexahydro-1H-pyrano[3,4-d]pyrimidin-8a(8H)-yl)-4-fluorophenoxy)methyl)bicyclo[1.1.1]pentane-1-carbonitrile] | 9 | 127
Cc1nccc(Oc2ccc(F)c([C@]34CO[C@@H](C5CC5)C[C@H]3C(=O)N(C)C(=N)N4)c2)n1 [Example 22, (4aR,6R,8aS)-6-cyclopropyl-8a-(2-fluoro-5-((2-methylpyrimidin-4-yl)oxy)phenyl)-2-imino-3-methylhexahydro-1H-pyrano[3,4-d]pyrimidin-4(4aH)-one] | 57 | 182
CN1C(=N)N[C@@]2(c3cc(Oc4cncc(C#N)c4)ccc3F)CO[C@@H](C3CC3)C[C@H]2C1=O [Example 27, 5-(3-((4aR,6R,8aS)-6-cyclopropyl-2-imino-3-methyl-4-oxohexahydro-1H-pyrano[3,4-d]pyrimidin-8a(8H)-yl)-4-fluorophenoxy)nicotinonitrile] | 10 | 51
C[C@H]1C[C@H]2C(=O)N(C)C(=N)N[C@@]2(c2cc(Oc3ncccc3F)c(F)cc2F)CO1 [Example 10, (4aR,6S,8aS)-8a-(2,4-difluoro-5-((3-fluoropyridin-2-yl)oxy)phenyl)-2-imino-3,6-dimethylhexahydro-1H-pyrano[3,4-d]pyrimidin-4(4aH)-one] | 4 | 2
CN1C(=N)N[C@@]2(c3cc(Oc4ncccc4F)ccc3F)CO[C@@H](C3CC3)C[C@H]2C1=O [Example 15, (4aR,6R,8aS)-6-cyclopropyl-8a-(2-fluoro-5-((3-fluoropyridin-2-yl)oxy)phenyl)-2-imino-3-methylhexahydro-1H-pyrano[3,4-d]pyrimidin-4(4aH)-one] | 2 | 8
CN1C(=N)N[C@@]2(c3cc(Oc4cnccn4)ccc3F)CO[C@@H](C3CC3)C[C@H]2C1=O [Example 39, (4aR,6R,8aS)-6-cyclopropyl-8a-(2-fluoro-5-(pyrazin-2-yloxy)phenyl)-2-imino-3-methylhexahydro-1H-pyrano[3,4-d]pyrimidin-4(4aH)-one] | 13 | 73
CN1C(=N)N[C@@]2(c3ccc(F)cc3F)CO[C@@H](C3CC3)C[C@H]2C1=O [Example 6, (4aR,6R,8aS)-6-cyclopropyl-8a-(2,4-difluorophenyl)-2-imino-3-methylhexahydro-1H-pyrano[3,4-d]pyrimidin-4(4aH)-one] | 99 | 265
CN1C(=N)N[C@@]2(c3cc(Oc4cccc(-n5cccn5)n4)ccc3F)CO[C@@H](C3CC3)C[C@H]2C1=O [Example 34, (4aR,6R,8aS)-8a-(5-((6-(1H-pyrazol-1-yl)pyridin-2-yl)oxy)-2-fluorophenyl)-6-cyclopropyl-2-imino-3-methylhexahydro-1H-pyrano[3,4-d]pyrimidin-4(4aH)-one] | 2.2 | 13.5

Continued, values first:

Ki [1] [nM] | Ki [2] [nM] | SMILES
39.9 | 15 | COc1ccnc(Oc2ccc(F)c([C@]34CO[C@@H](C)C[C@H]3C(=O)N(C)C(=N)N4)c2)c1 [Example 71, (4aR,6S,8aS)-8a-(2-fluoro-5-((4-methoxypyridin-2-yl)oxy)phenyl)-2-imino-3,6-dimethylhexahydro-1H-pyrano[3,4-d]pyrimidin-4(4aH)-one]
468 | 155 | COc1cc([C@]23CO[C@@H](C)C[C@H]2C(=O)N(C)C(=N)N3)c(F)cn1 [Example 91, (4aR,6S,8aS)-8a-(5-fluoro-2-methoxypyridin-4-yl)-2-imino-3,6-dimethylhexahydro-1H-pyrano[3,4-d]pyrimidin-4(4aH)-one]
37.6 | 9.67 | C[C@H]1C[C@H]2C(=O)N(C)C(=N)N[C@@]2(c2cc(Oc3ncccc3Cl)ccc2F)CO1 [Example 72, (4aR,6S,8aS)-8a-(5-((3-chloropyridin-2-yl)oxy)-2-fluorophenyl)-2-imino-3,6-dimethylhexahydro-1H-pyrano[3,4-d]pyrimidin-4(4aH)-one]
8.5 | 22.3 | C[C@H]1C[C@H]2C(=O)N(C)C(=N)N[C@@]2(c2cc(Oc3cc(F)cnc3F)ccc2F)CO1 [Example 80, (4aR,6S,8aS)-8a-(5-((2,5-difluoropyridin-3-yl)oxy)-2-fluorophenyl)-2-imino-3,6-dimethylhexahydro-1H-pyrano[3,4-d]pyrimidin-4(4aH)-one]
910 | 304 | COC[C@H]1C[C@H]2C(=O)N(C)C(=N)N[C@@]2(c2cc(Br)ccc2F)CO1 [Example 89, (4aR,6R,8aS)-8a-(5-bromo-2-fluorophenyl)-2-imino-6-(methoxymethyl)-3-methylhexahydro-1H-pyrano[3,4-d]pyrimidin-4(4aH)-one]
92 | 68 | COCCOc1ccc(F)c([C@]23CO[C@@H](C4CC4)C[C@H]2C(=O)N(C)C(=N)N3)c1 [Example 50, (4aR,6R,8aS)-6-cyclopropyl-8a-(2-fluoro-5-(2-methoxyethoxy)phenyl)-2-imino-3-methylhexahydro-1H-pyrano[3,4-d]pyrimidin-4(4aH)-one]
26.8 | 20.7 | C[C@H]1C[C@H]2C(=O)N(C)C(=N)N[C@@]2(c2cc(Oc3cccnc3)ccc2F)CO1 [Example 81, (4aR,6S,8aS)-8a-(2-fluoro-5-(pyridin-3-yloxy)phenyl)-2-imino-3,6-dimethylhexahydro-1H-pyrano[3,4-d]pyrimidin-4(4aH)-one]
5720 | 9300 | COC[C@@H]1C[C@H]2C(=O)N(C)C(=N)N[C@@]2(c2ccc(F)cc2F)CO1 [Example 47, (4aR,6S,8aS)-8a-(2,4-difluorophenyl)-2-imino-6-(methoxymethyl)-3-methylhexahydro-1H-pyrano[3,4-d]pyrimidin-4(4aH)-one]
3.2 | 0.76 | CN1C(=N)N[C@@]2(c3cc(OCC4CC4)ccc3F)CO[C@@H](c3ccc(F)cc3)C[C@H]2C1=O [Example 85, (4aR,6R,8aS)-8a-(5-(cyclopropylmethoxy)-2-fluorophenyl)-6-(4-fluorophenyl)-2-imino-3-methylhexahydro-1H-pyrano[3,4-d]pyrimidin-4(4aH)-one]
11 | 6.78 | C[C@H]1C[C@H]2C(=O)N(C)C(=N)N[C@@]2(c2cc(Oc3ncncc3F)ccc2F)CO1 [Example 69, (4aR,6S,8aS)-8a-(2-fluoro-5-((5-fluoropyrimidin-4-yl)oxy)phenyl)-2-imino-3,6-dimethylhexahydro-1H-pyrano[3,4-d]pyrimidin-4(4aH)-one]
